Data from patent US11076595B2, “1-(n,n-disubstituted carbamoyl) 4-(substituted sulfonyl)triazolin-5-one derivative, 4-(n,n-disubstituted carbamoyl) 1-(substituted sulfonyl)triazolin-5-one derivative, and herbicide containing said derivative as active ingredient” (HOKKO CHEMICAL INDUSTRY CO., LTD., priority 2017, dated 2021).

Experiments:
Type in all cases: in vivo
[1] = system: Amaranthus viridis; test: Test Example 14: herbicidal effect test by foliage treatment in upland field; conditions: 7 days after sowing, 120 g/10a, 14 days after treatment
Procedure: (§1) This test was performed with two replications per one formulation concentration plot, and 14 days after the formulation treatments, the weed suppression rate (%) was determined according to the following equation (Math. 2). Weed suppression rate (%)=(1−average dry weight (g) of plants in treated plots/average dry weight (g) of plants in untreated plots)×100 [Math. 2]
(§2) A pot having a size of 36 cm^2 was filled with field soil (alluvial soil) and after uniformly mixing the soil of the surface layer of 1 cm with 20 grains of each weed seed of crabgrass, Echinochloa crus-galli, Chenopodium album and Amaranthus viridis, the surface layer was pressed lightly. Seven Days after the sowing, an emulsifiable concentrate prepared according to Formulation Example 15 by using the compound shown in Table 12 below was diluted with water, and the water-diluted formulation was sprayed on the soil surface at a ratio of 100 liter per 10 are. The application rate of the active ingredient, by conversion, corresponded to 120 g per 10 are. Fourteen Days after the formulation treatment, the herbicidal effect was evaluated by the same criteria as in Test Example 11.

[2] = system: Echinochloa crus-galli; test: as above; conditions: 7 days after sowing, 120 g/10a, 14 days after treatment
Procedure: as §1, §2

[3] = system: Scirpus juncoides; test: Test Example 12: herbicidal effect test by treatment during growing period in paddy field; conditions: 120 g/10a; treatment seven days after sowing in flooded paddy pot; assessed 14 days after treatment
Procedure, shortened: (§3)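 Growing-period treatment in flooded paddy pots: the diluted emulsifiable concentrate was dripped in at 120 g a.i. per 10 are seven days after seeding. Inhibition is expressed as percent reduction in dry weight versus untreated pots, measured 14 days later in duplicate.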

[4] = system: Monochoria vaginalis; test: as above; conditions: 120 g/10a; treatment seven days after sowing in flooded paddy pot; assessed 14 days after treatment
Procedure, shortened: as §3

[5] = system: Lindernia pyxidaria; test: as above; conditions: 120 g/10a; treatment seven days after sowing in flooded paddy pot; assessed 14 days after treatment
Procedure, shortened: as §3

[6] = system: Echinochloa crus-galli; test: as above; conditions: 120 g/10a; treatment seven days after sowing in flooded paddy pot; assessed 14 days after treatment
Procedure, shortened: as §3

[7] = system: Chenopodium album; test: Test Example 14: herbicidal effect test by foliage treatment in upland field; conditions: 7 days after sowing, 120 g/10a, 14 days after treatment
Procedure: as §2

[8] = system: crabgrass; test: as above; conditions: 7 days after sowing, 120 g/10a, 14 days after treatment
Procedure: as §2

[9] = system: Scirpus juncoides; test: Test Example 11: herbicidal effect test by soil treatment in paddy field; conditions: 120 g/10a active ingredient, 14 days after treatment
Procedure, shortened: (§4)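 Puddled paddy soil with N:P:K 17:17:17 fertilizer in Wagner pots; 30 seeds per species sown at 0–1 cm, flooded to about 3 cm, kept in a glass greenhouse. Water-diluted emulsifiable concentrate dripped in immediately after sowing at 120 g a.i. per 10 are. Suppression from dry weight versus untreated at 14 days.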

[10] = system: Monochoria vaginalis; test: as above; conditions: 120 g/10a active ingredient, 14 days after treatment
Procedure, shortened: as §4

[11] = system: Lindernia pyxidaria; test: as above; conditions: 120 g/10a active ingredient, 14 days after treatment
Procedure, shortened: as §4

[12] = system: Echinochloa crus-galli; test: as above; conditions: 120 g/10a active ingredient, 14 days after treatment
Procedure, shortened: as §4

| Compound | herbicidal effect, Amaranthus viridis [1] [%] | herbicidal effect, Echinochloa crus-galli [2] [%] | Weed suppression rate (%) Scirpus juncoides [3] [%] | Weed suppression rate (%) Monochoria vaginalis [4] [%] | Weed suppression rate (%) Lindemia pyxidaria [5] [%] | Weed suppression rate (%) Echinochloa crus-galli [6] [%] | herbicidal effect, Chenopodium album [7] [%] | herbicidal effect, Crabgrass [8] [%] | Weed suppression rate (%) Scirpus juncoides [9] [%] | Weed suppression rate (%) Monochoria vaginalis [10] [%] | Weed suppression rate (%) Lindemia pyxidaria [11] [%] | Weed suppression rate (%) Echinochloa crus-galli [12] [%] |
| --- | --- | --- | --- | --- | --- | --- | --- | --- | --- | --- | --- | --- |
| CC(C)N(C(=O)n1cnn(S(=O)(=O)c2ccc(F)cc2)c1=O)c1ccccc1 [Compound 11-464] | 50 | 60 | 90 | 80 | 60 | 90 | 50 | 90 | 80 | 60 | 80 | 100 |
| C=CS(=O)(=O)n1ncn(C(=O)N(c2ccc(F)cc2F)C(C)C)c1=O [Compound 11-134] | 40 | 40 | 40 | 40 | 40 | 70 | 40 | 70 | 40 | 40 | 40 | 70 |
| CC(C)N(C(=O)n1cnn(S(=O)(=O)c2cccs2)c1=O)c1c(F)cc(F)cc1F [Compound 11-1026] | 30 | 90 | 100 | 100 | 80 | 100 | 70 | 90 | 100 | 100 | 100 | 100 |
| CC(C)N(C(=O)n1cnn(S(=O)(=O)C2CCCCC2)c1=O)c1ccc(C(F)(F)F)cc1F [Compound 11-311] | 60 | 90 | – | – | – | – | 30 | 100 | – | – | – | – |
| CCN(CC)S(=O)(=O)n1ncn(C(=O)N(c2ccc(F)cc2F)C(C)C)c1=O [Compound 11-1099] | 90 | 80 | – | – | – | – | 80 | 90 | – | – | – | – |
| CC(C)N(C(=O)n1cnn(S(=O)(=O)c2ccccc2F)c1=O)c1cccc(F)c1F [Compound 11-401] | – | – | 100 | 100 | 80 | 100 | – | – | 90 | 100 | 100 | 100 |
| Cc1ccc(S(=O)(=O)n2ncn(C(=O)N(C)c3ccc(F)cc3F)c2=O)cc1 [Compound 11-1131] | – | – | 80 | 90 | 70 | 100 | – | – | 100 | 70 | 100 | 100 |
| CC(C)N(C(=O)n1cnn(S(C)(=O)=O)c1=O)c1ccc(Cl)cc1F [Compound 11-20] | – | – | 60 | 60 | 40 | 70 | – | – | 80 | 40 | 40 | 70 |
| Cc1cc(C)c(S(=O)(=O)n2ncn(C(=O)N(c3ccccc3F)C(C)C)c2=O)c(C)c1 [Compound 11-853] | – | – | 90 | 80 | 80 | 90 | – | – | 90 | 80 | 90 | 100 |
| Cc1cc(C)c(S(=O)(=O)n2ncn(C(=O)N(c3ccc(F)c(F)c3F)C(C)C)c2=O)c(C)c1 [Compound 11-866] | – | – | 60 | 90 | 70 | 80 | – | – | 90 | 90 | 100 | 100 |
| CC(C)N(C(=O)n1cnn(S(=O)(=O)c2ccccc2F)c1=O)c1ccc(Br)cc1Cl [Compound 11-413] | – | – | 70 | 70 | 70 | 60 | – | – | 80 | 80 | 90 | 80 |
| CCN(C(=O)n1cnn(S(=O)(=O)c2ccccc2)c1=O)C1CCCCC1 [Compound 11-353] | – | – | 90 | 80 | 80 | 90 | – | – | 90 | 80 | 80 | 90 |
| Cc1cc(C)c(S(=O)(=O)n2ncn(C(=O)N(c3cccc(F)c3)C(C)C)c2=O)c(C)c1 [Compound 11-854] | – | – | 80 | 90 | 90 | 80 | – | – | 90 | 80 | 90 | 100 |
| CN(C(=O)n1cnn(S(C)(=O)=O)c1=O)c1ccc(F)cc1F [Compound 11-1125] | – | – | 30 | 60 | 70 | 90 | – | – | 60 | 60 | 60 | 90 |
| Cc1cc(F)ccc1N(C(=O)n1cnn(S(=O)(=O)c2cccc(Cl)c2)c1=O)C(C)C [Compound 11-563] | – | – | 100 | 80 | 80 | 100 | – | – | 100 | 90 | 100 | 100 |
| CN(C(=O)n1cnn(S(=O)(=O)c2ccc(F)cc2)c1=O)c1ccc(F)cc1F [Compound 11-1137] | – | – | 100 | 80 | 70 | 100 | – | – | 100 | 80 | 90 | 100 |
| CC(C)N(C(=O)n1cnn(S(=O)(=O)c2ccc(C(C)(C)C)cc2)c1=O)c1ccc(F)cc1Cl [Compound 11-689] | – | – | 90 | 80 | 70 | 60 | – | – | 70 | 70 | 90 | 90 |
